Source: patent publication US10428055B2, “Substituted piperidines having GPR119 agonistic activity” (DONG-A ST CO., LTD., priority 2014, dated 2019)

Columns and labels:
C57BL/6 mouse = experiment: Assessment of glucose tolerance improvement effect in mouse; type: in vivo; settings: 2 h; 10 mg/kg oral, 30 min before oral glucose 2 g/kg; male C57BL/6 mouse; blood glucose AUC
Experimental: <Experimental Example 2>Assessment of glucose tolerance improvement effect in mouse
As one of anti-diabetic effect indicators, the glucose tolerance improvement effect of the above compounds was evaluated in 7-week male laboratory mouse (C57BL/6 mouse), as the effect of improving postprandial glycemic control ability.
The laboratory mouse was fasted from the day before the experiment for 16-17 hours. The compound of the present invention was orally administered 30 minutes before administrating glucose, and after 30 minutes, a glucose solution (2 g/kg/10 ml) was orally administered. A drug was prepared by suspending in a 10% Gelucire solution. At the times immediately before drug administration, immediately before glucose solution administration, 15 minutes, 30 minutes, 60 minutes, 90 minutes, and 120 minutes after glucose administration, the whole blood glucose levels was measured from tail vein using a blood glucose meter (AccuChek Active, Roche Diagnostics), and the area under the curve of a temporal blood glucose curve was calculated. From the calculated area under the blood glucose curve, the area under the blood glucose curve of a negative control group to which no glucose solution was administered was subtracted, and inhibitory activity against blood glucose increase of a control group to which only the 10% Gelucire solution and glucose solution were administered was calculated as a percentage, thereby evaluating the glucose tolerance improvement efficacy of a drug.
The results are shown in Table 3, in which the glucose tolerance improvement effect represented at a dose of 10 mg/kg was represented by classifying into three groups, under 30%, more than 30% under 40%, and more than 40%. A significant glucose tolerance improvement effect was identified in 22 compounds on which the experiment was carried out, and among those compounds, 16 compounds represented an excellent in vivo activity of 30% inhibitory dose of 10 mg/kg or less. In the following Table 3, A represents an inhibitory activity more than 40%, B represents an inhibitory activity more than 30% under 40% and C represents an inhibitory activity under 30%.

Human GPR119 = target: T1, Human GPR119 (Homo sapiens, UniProt Q8TDV5); experiment: Human GPR119 activation assay (cAMP, HTRF); type: cell-based; settings: 1 h, HEK293 cells transiently expressing human GPR119, relative to maximum effect of OEA, read-out: hGPR119 activation ability (cAMP assay) Relative Response % vs OEA; for Emax at 0.001 µM: 1 nM; for Emax at 0.01 µM: 10 nM
T1 construct: host or cells: HEK293 (ATCC)
T1 sequence (Q8TDV5 1-335): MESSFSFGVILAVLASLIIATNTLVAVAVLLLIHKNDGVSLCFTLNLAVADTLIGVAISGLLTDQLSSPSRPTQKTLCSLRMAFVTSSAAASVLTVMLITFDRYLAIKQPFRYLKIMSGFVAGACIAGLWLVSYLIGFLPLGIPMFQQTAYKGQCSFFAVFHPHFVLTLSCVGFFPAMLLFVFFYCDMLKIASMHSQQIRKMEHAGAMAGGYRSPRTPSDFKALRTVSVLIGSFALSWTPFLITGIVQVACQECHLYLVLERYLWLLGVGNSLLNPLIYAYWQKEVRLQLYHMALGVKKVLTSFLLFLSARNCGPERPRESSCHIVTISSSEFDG
Procedure, shortened: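 HEK293 cells transiently overexpressing human GPR119 (48 h), pre-treated 10 min then exposed 60 min to compound in KRBH with 11.1 mM glucose, 0.1% BSA and 0.5 mM IBMX. Intracellular cAMP quantified by HTRF; activation expressed as % of maximal oleoylethanolamide effect from multiple-concentration testing.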

SMILES | Emax at 0.001 µM (Human GPR119) [%] | Emax at 0.01 µM (Human GPR119) [%] | inhibition in vivo at 10 mg/kg (C57BL/6 mouse) [%]
CC(C)c1nc(-c2c(F)cc(OCCCC3CCN(c4ncc(C(F)(F)F)cn4)CC3)cc2F)no1 [Example 25, 3-(2,6-difluoro-4-(3-(1-(5-(trifluoromethyl)pyrimidin-2-yl)piperidin-4-yl)propoxy)phenyl)-5-isopropyl-1,2,4-oxadiazole] | 159 | 274 | < 30
CC(C)c1nc(-c2c(F)cc(OCCCC3CCN(c4ncc(Cl)cn4)CC3)cc2F)no1 [Example 28, 3-(4-(3-(1-(5-chloropyrimidin-2-yl)piperidin-4-yl)propoxy)-2,6-difluorophenyl)-5-isopropyl-1,2,4-oxadiazole] | 23.8 | 115 | < 30
CC(C)c1nc(-c2c(F)cc(OCCCC3CCN(c4ccc(C(F)(F)F)cn4)CC3)cc2F)no1 [Example 38, 3-(2,6-difluoro-4-(3-(1-(5-(trifluoromethyl)pyridin-2-yl)piperidin-4-yl)propoxy)phenyl)-5-isopropyl-1,2,4-oxadiazole] | 102 | 120 | < 30
CCc1cnc(N2CCC(CCCOc3cc(F)c(-c4nnc(CC)o4)c(F)c3)CC2)nc1 [Example 43, 2-ethyl-5-(4-(3-(1-(5-ethylpyrimidin-2-yl)piperidin-4-yl)propoxy)-2,6-difluorophenyl)-1,3,4-oxadiazole] | 260 | 538 | > 40
Cc1nnc(-c2c(F)cc(OCCCC3CCN(c4ncc(C(F)(F)F)cn4)CC3)cc2F)o1 [Example 46, 2-(2,6-difluoro-4-(3-(1-(5-(trifluoromethyl)pyrimidin-2-yl)piperidin-4-yl)propoxy)phenyl)-5-methyl-1,3,4-oxadiazole] | 209 | 239 | > 40
CCc1nnc(-c2c(F)cc(OCCCC3CCN(c4ncc(C(F)(F)F)cn4)CC3)cc2F)o1 [Example 47, 2-(2,6-difluoro-4-(3-(1-(5-(trifluoromethyl)pyrimidin-2-yl)piperidin-4-yl)propoxy)phenyl)-5-ethyl-1,3,4-oxadiazole] | 66 | 218 | > 40
CC(C)c1nnc(-c2c(F)cc(OCCCC3CCN(c4cnc(Cl)cn4)CC3)cc2F)o1 [Example 51, 2-(4-(3-(1-(5-chloropyrazin-2-yl)piperidin-4-yl)propoxy)-2,6-difluorophenyl)-5-isopropyl-1,3,4-oxadiazole] | 90.7 | 180 | > 40

The next lines start with results.

Emax at 0.001 µM (Human GPR119) [%] | Emax at 0.01 µM (Human GPR119) [%] | SMILES | inhibition in vivo at 10 mg/kg (C57BL/6 mouse) [%]
63.7 | 206 | CC(C)c1noc(N2CCC(CCCOc3cc(F)c(-c4noc(C(C)C)n4)c(F)c3)CC2)n1 [Example 40, 3-(2,6-difluoro-4-(3-(1-(3-isopropyl-1,2,4-oxadiazol-5-yl)piperidin-4-yl)propoxy)phenyl)-5-isopropyl-1,2,4-oxadiazole] | 30 to 40
127 | 150 | CCc1cnc(N2CCC(CCCOc3cc(F)c(-c4nnc(C)o4)c(F)c3)CC2)nc1 [Example 42, 2-(4-(3-(1-(5-ethylpyrimidin-2-yl)piperidin-4-yl)propoxy)-2,6-difluorophenyl)-5-methyl-1,3,4-oxadiazole] | > 40
168 | 266 | Cc1nnc(-c2c(F)cc(OCCCC3CCN(c4nc(C(C)C)no4)CC3)cc2F)o1 [Example 55, 5-(4-(3-(3,5-difluoro-4-(5-methyl-1,3,4-oxadiazol-2-yl)phenoxy)propyl)piperidin-1-yl)-3-isopropyl-1,2,4-oxadiazole] | 30 to 40
255 | 395 | CC(C)c1noc(N2CCC(CCCOc3cc(F)c(-c4nnc(C(C)C)o4)c(F)c3)CC2)n1 [Example 57, 5-(4-(3-(3,5-difluoro-4-(5-isopropyl-1,3,4-oxadiazol-2-yl)phenoxy)propyl)piperidin-1-yl)-3-isopropyl-1,2,4-oxadiazole] | 30 to 40
